Results from ChEMBL document CHEMBL4699392, “Application of triazoles as bioisosteres and linkers in the development of microtubule targeting agents” (RSC Med Chem, 2020).

Tests used:
BJAB [1] = test: Cytotoxicity against human BJAB cells; assay type: functional, cell-based
SGC-7901 [2] = test: Cytotoxicity against human SGC-7901 cells; assay type: functional, cell-based
HT-1080 [3] = test: Cytotoxicity against human HT-1080 cells; assay type: functional, cell-based
A549 [4] = test: Cytotoxicity against human A549 cells; assay type: functional, cell-based
A549 [5] = test: Cytotoxicity against human A549 cells assessed as reduction in cell viability incubated for 48 hrs by MTT assay; assay type: functional, cell-based; conditions: A549, 48 h
HeLa = test: Cytotoxicity against human HeLa cells assessed as reduction in cell viability incubated for 48 hrs by MTT assay; assay type: functional, cell-based
SGC-7901 [6] = test: Cytotoxicity against human SGC-7901 cells assessed as reduction in cell viability incubated for 24 hrs by MTT assay; assay type: functional, cell-based; conditions: SGC-7901, 24 h
A549 [7] = test: Cytotoxicity against human A549 cells assessed as reduction in cell viability incubated for 24 hrs by MTT assay; assay type: functional, cell-based; conditions: A549, 24 h
HT-1080 [8] = test: Cytotoxicity against human HT-1080 cells assessed as reduction in cell viability incubated for 24 hrs by MTT assay; assay type: functional, cell-based; conditions: HT-1080, 24 h
Tubulin [9] = test: Inhibition of tubulin polymerization (unknown origin) measured for every 1 min interval for 90 mins by fluorescence based assay; assay type: protein-complex assay, Homo sapiens
[10] = Inhibition of bovine brain tubulin polymerization by spectrometric analysis; assay type: tissue-based, Bos taurus
Sus scrofa = species: Sus scrofa; test: Displacement of fluorescein-colchicine from pig brain tubulin incubated for 1 hr by fluorescence based gel exclusion assay; assay type: tissue-based; conditions: concentration not given here
BJAB [11] = test: Cytotoxicity against human BJAB cells assessed as reduction in cell viability incubated for 24 hrs by CASY cell counter method; assay type: functional, cell-based
B16 = test: Cytotoxicity against mouse B16 cells assessed as reduction in cell viability incubated for 72 hrs by MTT assay; assay type: functional, cell-based; conditions: B16, 72 h
[12] = Cytotoxicity against Cervical carcinoma cell line (unknown origin) assessed as reduction in cell viability incubated for 72 hrs by MTT assay; assay type: functional
[13] = Cytotoxicity against Prostate tumor cell line (unknown origin) assessed as reduction in cell viability incubated for 72 hrs by MTT assay; assay type: functional
[14] = Cytotoxicity against Breast cancer cells (unknown origin) assessed as reduction in cell viability incubated for 72 hrs by MTT assay; assay type: functional, cell-based; conditions: Breast cancer cell line
[15] = Cytotoxicity against Leukemia cell line (unknown origin) assessed as reduction in cell viability incubated for 72 hrs by MTT assay; assay type: functional
[16] = Cytotoxicity against Ovarian cancer cell line (unknown origin) assessed as reduction in cell viability incubated for 72 hrs by MTT assay; assay type: functional
Tubulin [17] = test: Inhibition of tubulin polymerization (unknown origin) incubated for 1 hr by fluorescence based assay; assay type: protein-complex assay, Homo sapiens
MCF7 = test: Cytotoxicity against human MCF7 cells assessed as reduction in cell viability incubated for 24 hrs by MTT assay; assay type: functional, cell-based; conditions: MCF7, 24 h
HT-29 = test: Cytotoxicity against human HT-29 cells assessed as reduction in cell viability incubated for 24 hrs by MTT assay; assay type: functional, cell-based; conditions: HT-29, 24 h

**Q.** For `CCCCCCCCCCCCCCCCCC(=O)OCc1cn(C2CCc3cc(OC)c(OC)c(OC)c3-c3ccc(OC)c(=O)cc32)nn1` (centres undefined), which IC50 (BJAB [1]) is on record?
**A.** 4 nM

**Q.** For `COc1cc(/C(=N/O)c2cnn(-c3ccccc3)n2)cc(OC)c1OC`, which IC50 (SGC-7901 [2]) is on record?
**A.** 120 nM

**Q.** What about the IC50 (HT-1080 [3]) of the same compound?
**A.** 120 nM

**Q.** And the IC50 (A549 [4])?
**A.** 120 nM

**Q.** Which IC50 (A549 [5]) does the source give for `COc1ccc(S(=O)(=O)Nc2cccnc2Nc2ccc(O)cc2)cc1` [ABT-751] here?
**A.** 1620 nM

**Q.** What about the IC50 (HeLa) of the same compound?
**A.** 2180 nM

**Q.** Which results are given for `COc1cccc(-c2nnc3n2N=C(c2ccc(OC)c(N)c2)CS3)c1`?
**A.** IC50 (SGC-7901 [6]): 11 nM; IC50 (A549 [7]): 11 nM; IC50 (HT-1080 [8]): 11 nM; IC50 (Tubulin [9]): 1600 nM

**Q.** For `COc1cc(C(=O)n2nc(-c3ccc(C)cc3)nc2N)cc(OC)c1OC`, which IC50 [10] is on record?
**A.** 660 nM

**Q.** For `CCCCCCCCCCCC(=O)OCc1cn(C2CCc3cc(OC)c(OC)c(OC)c3-c3ccc(OC)c(=O)cc32)nn1` (centres undefined), which inhibition (Sus scrofa) is on record?
**A.** > 80%

**Q.** What about the IC50 (BJAB [11]) of the same compound?
**A.** 10 nM

**Q.** For `COc1ccc(/C=C\c2cc(OC)c(OC)c(OC)c2)cc1O` [COMBRETASTATIN A4], which IC50 (B16) is on record?
**A.** 56000 nM

**Q.** For `COc1cc(-c2nncn2-c2ccc3c(ccn3C)c2)cc(OC)c1OC`, which IC50 [12] is on record?
**A.** 2.1 nM

**Q.** What about the IC50 [13] of the same compound?
**A.** 2.1 nM

**Q.** And the IC50 [14]?
**A.** 2.1 nM

**Q.** What about the IC50 [15] of the same compound?
**A.** 2.1 nM

**Q.** And the IC50 [16]?
**A.** 2.1 nM

**Q.** Which results are given for `COc1cc(Nc2ncccc2NC(=O)c2cn(Cc3cccc(Oc4ccccc4)c3)nn2)cc(OC)c1`?
**A.** IC50 (A549 [5]): 1020 nM; IC50 (HeLa): 1330 nM; IC50 (Tubulin [17]): 2040 nM

**Q.** Which IC50 (BJAB [1]) does the source give for `CCCCCCCC/C=C\CCCCCCCC(=O)OCc1cn(C2CCc3cc(OC)c(OC)c(OC)c3-c3ccc(OC)c(=O)cc32)nn1` (centres undefined) here?
**A.** 6 nM

**Q.** Which IC50 (Tubulin [17]) does the source give for `O=C(c1cn(Cc2cccc(Oc3ccccc3)c2)nn1)c1cccnc1Nc1ccc(F)cc1` here?
**A.** 1840 nM

**Q.** What does the source list for `COc1cc(Cc2nnc(S)n2/N=C\c2cccc(Cl)c2Cl)cc(OC)c1OC`?
**A.** IC50 (Tubulin [17]): 170 nM; IC50 (MCF7): 3330 nM; IC50 (A549 [7]): 9710 nM; IC50 (HT-1080 [8]): 12500 nM; IC50 (HT-29): 4250 nM
